The values that follow come from patent US10800791B2, “Triazole ACC inhibitors and uses thereof” (Gilead Apollo, LLC, priority 2015, dated 2020).

Each structure is given as a SMILES string. ≈ marks a conversion by molar mass, not a printed value. Where two headings read alike, the source gives them in different places. Bounds are passed on as bounds.

In general, IC50 refers to the point on the concentration scale where inhibition reaches its midpoint. The term MIC denotes the least concentration at which growth counts as inhibited.

In test [1] the target is fungal (fACC2) (UniProt Q00955). Particulars: read-out: fACC2 (in vitro ACC2 Inhibition Assay, IC50), ADP-Glo, 5 nM ACC2, 20 μM ATP, 20 μM acetyl-CoA.
Sequence of fungal (fACC2) (Q00955 whole entry): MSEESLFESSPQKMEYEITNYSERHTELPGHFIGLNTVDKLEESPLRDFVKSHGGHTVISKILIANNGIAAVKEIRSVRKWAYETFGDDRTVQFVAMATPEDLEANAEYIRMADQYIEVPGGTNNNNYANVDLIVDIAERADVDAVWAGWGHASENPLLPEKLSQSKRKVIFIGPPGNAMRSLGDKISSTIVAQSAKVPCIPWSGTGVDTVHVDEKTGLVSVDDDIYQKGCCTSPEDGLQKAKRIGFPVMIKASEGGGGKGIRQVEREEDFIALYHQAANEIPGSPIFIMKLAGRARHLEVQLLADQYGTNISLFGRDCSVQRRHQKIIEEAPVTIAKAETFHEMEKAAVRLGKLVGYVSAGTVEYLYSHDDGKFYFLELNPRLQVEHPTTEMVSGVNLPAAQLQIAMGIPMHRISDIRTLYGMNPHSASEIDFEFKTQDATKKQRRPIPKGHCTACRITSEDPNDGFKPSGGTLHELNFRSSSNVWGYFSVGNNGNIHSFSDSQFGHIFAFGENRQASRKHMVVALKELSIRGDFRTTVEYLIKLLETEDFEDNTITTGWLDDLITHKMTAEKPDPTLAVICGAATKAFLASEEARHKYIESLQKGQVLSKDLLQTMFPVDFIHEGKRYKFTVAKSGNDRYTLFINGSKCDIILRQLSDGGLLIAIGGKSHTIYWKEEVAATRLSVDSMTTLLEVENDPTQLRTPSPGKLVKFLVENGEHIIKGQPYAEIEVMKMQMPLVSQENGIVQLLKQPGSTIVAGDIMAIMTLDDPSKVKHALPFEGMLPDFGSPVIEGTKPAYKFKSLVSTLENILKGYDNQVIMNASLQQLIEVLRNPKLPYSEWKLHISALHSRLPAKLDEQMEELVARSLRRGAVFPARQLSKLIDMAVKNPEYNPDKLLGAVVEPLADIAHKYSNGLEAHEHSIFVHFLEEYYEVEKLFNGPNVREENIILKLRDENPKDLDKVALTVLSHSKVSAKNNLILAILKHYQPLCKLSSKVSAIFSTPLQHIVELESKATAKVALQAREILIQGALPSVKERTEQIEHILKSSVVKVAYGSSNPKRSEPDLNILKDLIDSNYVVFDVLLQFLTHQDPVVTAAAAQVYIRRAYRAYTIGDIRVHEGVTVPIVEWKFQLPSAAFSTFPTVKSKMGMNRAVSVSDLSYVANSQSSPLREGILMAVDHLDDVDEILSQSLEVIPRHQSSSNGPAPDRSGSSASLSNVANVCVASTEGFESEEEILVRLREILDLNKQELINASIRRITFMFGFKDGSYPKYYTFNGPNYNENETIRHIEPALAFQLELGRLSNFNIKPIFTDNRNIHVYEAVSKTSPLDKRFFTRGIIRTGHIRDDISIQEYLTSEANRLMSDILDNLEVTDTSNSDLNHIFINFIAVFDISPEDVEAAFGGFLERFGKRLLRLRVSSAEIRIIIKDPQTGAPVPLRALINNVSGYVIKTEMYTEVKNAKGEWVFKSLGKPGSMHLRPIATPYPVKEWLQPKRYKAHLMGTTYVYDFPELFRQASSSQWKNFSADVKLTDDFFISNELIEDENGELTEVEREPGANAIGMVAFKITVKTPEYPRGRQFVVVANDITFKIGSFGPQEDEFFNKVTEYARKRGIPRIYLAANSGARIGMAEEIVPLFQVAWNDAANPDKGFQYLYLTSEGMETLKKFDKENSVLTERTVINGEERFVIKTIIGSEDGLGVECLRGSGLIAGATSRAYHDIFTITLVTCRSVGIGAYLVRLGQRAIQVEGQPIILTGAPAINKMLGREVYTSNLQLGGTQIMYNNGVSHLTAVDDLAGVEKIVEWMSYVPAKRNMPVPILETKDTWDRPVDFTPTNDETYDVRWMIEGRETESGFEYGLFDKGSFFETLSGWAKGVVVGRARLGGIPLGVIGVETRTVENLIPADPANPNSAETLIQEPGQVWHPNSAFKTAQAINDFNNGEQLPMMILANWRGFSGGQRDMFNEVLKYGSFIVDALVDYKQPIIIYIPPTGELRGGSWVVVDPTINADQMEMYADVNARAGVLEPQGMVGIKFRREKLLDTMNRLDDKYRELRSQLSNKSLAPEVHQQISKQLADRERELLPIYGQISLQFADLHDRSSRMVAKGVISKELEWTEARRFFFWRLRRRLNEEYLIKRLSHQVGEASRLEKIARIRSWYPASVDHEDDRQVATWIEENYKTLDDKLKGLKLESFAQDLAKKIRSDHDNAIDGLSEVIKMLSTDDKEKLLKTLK
Test [2] concerns Botrtyis cinerea (Bc). The test is described as follows: Growth inhibition assay of fungal pathogens, Bc. The test is classed as cell-based. To be noted: 48 h. Put shortly:
(§1)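 Inhibition percentages reflect 48 h OD600 and visual scores relative to a 2% DMSO control. Test concentrations were 50, 10, 2 ppm or 2, 0.4, 0.08 ppm final, applied to spores in 17% V8 medium.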

Test [3] deals with Diplodia maydis (Dm). Briefly: Growth inhibition assay of fungal pathogens, Dm. The class given is cell-based. Particulars: Stenocarpella maydis, 48 h. The gist of the method: as §1
Test [4] deals with Rhizoctonia solani (Rs). The test is described as follows: Growth inhibition assay of fungal pathogens, Rs. To be noted: 48 h. The test is classed as cell-based.
In test [5] the test system is C. albicans. Briefly: Antifungal Activity Assay (broth microtiter MIC), C. albicans. The test is classed as cell-based, Candida albicans. To be noted: Candida albicans, ATCC90028, 48 h. The gist of the method: (§2)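 MICs were scored by eye at 48 h relative to the growth control. Plates followed CLSI M27-A3, with Candida suspensions in RPMI 1640+MOPS giving a final 2.5×10^3 CFU/mL; the colonies came from Sabouraud agar grown overnight at 35 °C.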

In test [6] the test system is Septoria tritici (St). The test is described as follows: Growth inhibition assay of fungal pathogens, St. The class given is cell-based. Particulars: Zymoseptoria tritici, 48 h. Put shortly:
as §1

In test [7] the test system is C. krusei. Briefly: Antifungal Activity Assay (broth microtiter MIC), C. krusei. The class given is cell-based, Candida krusei. Particulars: Pichia kudriavzevii, ATCC6258, 48 h. Put shortly:
as §2

Test [8] concerns C. parapsilosis. The test is described as follows: Antifungal Activity Assay (broth microtiter MIC), C. parapsilosis. The class given is cell-based, Candida parapsilosis. Particulars: Lodderomyces parapsilosis, ATCC22019, 48 h. The gist of the method: as §2
For test [9], the system named is Collectotrichum graminicola (Cg). The test is described as follows: Growth inhibition assay of fungal pathogens, Cg. Particulars: 48 h. The class given is cell-based. The gist of the method: as §1
In test [10] the test system is Fusarium moniliforme (Fm). The test is described as follows: Growth inhibition assay of fungal pathogens, Fm. The test is classed as cell-based. To be noted: for IC90: Fusarium verticillioides, 48 h, read-out: Concentration at 90% Inhibition Fm. Put shortly: as §1
Test [11] deals with Fusarium virguliforme (Fv). Briefly: Growth inhibition assay of fungal pathogens, Fv. The class given is cell-based. To be noted: 48 h. Put shortly: as §1
Where [12] appears, read: Fusarium moniliforme, growth inhibition at 48 hours vs 2% DMSO control.

Consider `COCCCO[C@@H](Cn1c(=O)n(C(C)(C)C(=O)N2CCCC2)c(=O)c2c(C)c(-n3nccn3)sc21)c1cc(F)ccc1OC` [Compound I-68, (R)-1-(2-(5-fluoro-2-methoxyphenyl)-2-(3-methoxy-propoxy)ethyl)-5-methyl-3-(2-methyl-1-oxo-1-(pyrrolidin-1-yl)propan-2-yl)-6-(2H-1,2,3-triazol-2-yl)thieno[2,3-d]pyrimidine-2,4(1H,3H)-dione], for which the IC50 in test [1] (Table 2a) lay in the range of 1 to 5 nM; in [1] (Table 2b, additional results) it was 1 to 5 nM. Besides, the IC90 in test [2] (Botrtyis cinerea, growth inhibition at 48 hours vs 2% DMSO control, read-out: Concentration at 90% Inhibition Bc) amounted to 2 mg/L (≈ 3.18 µM); in test [2] (Botrtyis cinerea, growth inhibition vs 2% DMSO control at 48 hours, read-out: Concentration at 90% Inhibition Bc), 2 mg/L (≈ 3.18 µM); in [3] (Diplodia maydis, growth inhibition at 48 hours vs 2% DMSO control, read-out: Concentration at 90% Inhibition Dm), 2 mg/L (≈ 3.18 µM); in test [3] (Diplodia maydis, growth inhibition vs 2% DMSO control at 48 hours, read-out: Concentration at 90% Inhibition Dm), 2 mg/L (≈ 3.18 µM); in test [4] (mycelial plugs, growth inhibition at 48 hours vs 2% DMSO control, read-out: Concentration at 90% Inhibition Rs), 0.4 mg/L (≈ 0.636 µM); in test [4] (mycelial plugs, growth inhibition vs 2% DMSO control at 48 hours, read-out: Concentration at 90% Inhibition Rs), 0.4 mg/L (≈ 0.636 µM). The IC90 in test [6] (Septoria tritici, growth inhibition at 48 hours vs 2% DMSO control, read-out: Concentration at 90% Inhibition St) was above 50 mg/L; in test [6] (Septoria tritici, growth inhibition vs 2% DMSO control at 48 hours, read-out: Concentration at 90% Inhibition St), above 50 mg/L; in test [9] (Collectotrichum graminicola, growth inhibition at 48 hours vs 2% DMSO control, read-out: Concentration at 90% Inhibition Cg), 2 mg/L (≈ 3.18 µM); in test [9] (Collectotrichum graminicola, growth inhibition vs 2% DMSO control at 48 hours, read-out: Concentration at 90% Inhibition Cg) it was 2 mg/L (≈ 3.18 µM); in test [10] (setting [12]), 0.08 mg/L (≈ 0.127 µM); in [10] (Fusarium moniliforme, growth inhibition vs 2% DMSO control at 48 hours) it was 0.08 mg/L (≈ 0.127 µM). Also, the IC90 came out at 0.4 mg/L (≈ 0.636 µM) in [11] (growth inhibition at 48 hours vs 2% DMSO control, read-out: Concentration at 90% Inhibition Fv) and 0.4 mg/L (≈ 0.636 µM) in test [11] (growth inhibition vs 2% DMSO control at 48 hours, read-out: Concentration at 90% Inhibition Fv). The MIC lay within 2.01 to 4 mg/L (≈ 3.2 to 6.36 µM) in [5] (Table 3b (additional results), ATCC 90028, 3 replicates, MIC recorded at 48 h, read-out: MIC, C. albicans ATCC 90028); 2.01 to 4 mg/L (≈ 3.2 to 6.36 µM) in [7] (Table 3b (additional results), ATCC 6258, 3 replicates, MIC recorded at 48 h, read-out: MIC, C. krusei ATCC 6258); 1.01 to 2 mg/L (≈ 1.61 to 3.18 µM) in test [8] (Table 3b (additional results), ATCC 22019, 3 replicates, MIC recorded at 48 h, read-out: MIC, C. parapsilosis ATCC 22019).

`COCCCO[C@@H](Cn1c(=O)n(C(C)(C)C(=O)NC(C)C)c(=O)c2c(C)c(-n3nccn3)sc21)c1cc(F)ccc1OC` [Compound I-69, (R)-2-(1-(2-(5-fluoro-2-methoxyphenyl)-2-(3-methoxy-propoxy)ethyl)-5-methyl-2,4-dioxo-6-(2H-1,2,3-triazol-2-yl)-1,4-dihydrothieno[2,3-d]pyrimidin-3(2H)-yl)-N-isopropyl-2-methylpropanamide]: the IC50 in [1] (Table 2a) was 0.4 to 1 nM; in [1] (Table 2b, additional results), 0.3 to 1 nM. Also, the IC90 in test [2] (read-out: Concentration at 90% Inhibition Bc, Botrtyis cinerea, growth inhibition at 48 hours vs 2% DMSO control) came to 0.4 mg/L (≈ 0.649 µM); in test [2] (read-out: Concentration at 90% Inhibition Bc, Botrtyis cinerea, growth inhibition vs 2% DMSO control at 48 hours), 0.4 mg/L (≈ 0.649 µM); in test [3] (read-out: Concentration at 90% Inhibition Dm, Diplodia maydis, growth inhibition at 48 hours vs 2% DMSO control), 0.08 mg/L (≈ 0.13 µM); in [3] (read-out: Concentration at 90% Inhibition Dm, Diplodia maydis, growth inhibition vs 2% DMSO control at 48 hours) it was 0.08 mg/L (≈ 0.13 µM); in [4] (read-out: Concentration at 90% Inhibition Rs, Rhizoctonia solani, mycelial plugs, growth inhibition at 48 hours vs 2% DMSO control) it was 0.4 mg/L (≈ 0.649 µM); in test [4] (read-out: Concentration at 90% Inhibition Rs, Rhizoctonia solani, mycelial plugs, growth inhibition vs 2% DMSO control at 48 hours) it was 0.4 mg/L (≈ 0.649 µM). In addition, the IC90 is 10 mg/L (≈ 16.2 µM) in test [6] (read-out: Concentration at 90% Inhibition St, Septoria tritici, growth inhibition at 48 hours vs 2% DMSO control); above 50 mg/L in test [6] (read-out: Concentration at 90% Inhibition St, Septoria tritici, growth inhibition vs 2% DMSO control at 48 hours); 0.4 mg/L (≈ 0.649 µM) in test [9] (read-out: Concentration at 90% Inhibition Cg, Collectotrichum graminicola, growth inhibition at 48 hours vs 2% DMSO control); 0.4 mg/L (≈ 0.649 µM) in [9] (read-out: Concentration at 90% Inhibition Cg, Collectotrichum graminicola, growth inhibition vs 2% DMSO control at 48 hours); 0.08 mg/L (≈ 0.13 µM) in test [10]; 0.08 mg/L (≈ 0.13 µM) in test [11] (read-out: Concentration at 90% Inhibition Fv, Fusarium virguliforme, growth inhibition at 48 hours vs 2% DMSO control). Further, in test [11] (read-out: Concentration at 90% Inhibition Fv, Fusarium virguliforme, growth inhibition vs 2% DMSO control at 48 hours), the IC90 is 0.08 mg/L (≈ 0.13 µM). In addition, the MIC in test [5] (read-out: MIC, C. albicans ATCC 90028, Table 3b (additional results), 3 replicates, MIC recorded at 48 h) is 1.01 to 2 mg/L (≈ 1.64 to 3.24 µM); in [7] (read-out: MIC, C. krusei ATCC 6258, Table 3b (additional results), 3 replicates, MIC recorded at 48 h), 0.25 to 1 mg/L (≈ 0.405 to 1.62 µM); in test [8] (read-out: MIC, C. parapsilosis ATCC 22019, Table 3b (additional results), 3 replicates, MIC recorded at 48 h) it was 0.25 to 1 mg/L (≈ 0.405 to 1.62 µM). Further, in [10] (setting [12]), the “Concentration at 90% Inhibition Fm” value is on record as “AA (compound concentration of 0.08 ppm at 90% inhibition of fungal pathogens)”.
